Reference: patent US10414759B2, “Phenylthiazoles and uses thereof” (Purdue Research Foundation, priority 2017, dated 2019)
≈ marks a conversion by molar mass, not a printed value.

Key:
[1] = tested on: Enterococcus faecium ATCC 700221 (VRE); assay: MIC/MBC Gram-positive pathogens (Table 9); assay type: cell-based; settings: Table 9; Enterococcus faecium ATCC 700221 (VRE); read-out: MIC
Experimental: (§1) The minimum inhibitory concentration (MIC) of tested compounds and control antibiotics were determined using the broth microdilution method in accordance with the recommendations contained in the Clinical and Laboratory Standards Institute guidelines, against methicillin-sensitive (ATCC 6538 and NRS107), methicillin-resistant (MRSA), and vancomycin-resistant (VRSA) Staphylococcus aureus, Staphylococcus epidermidis, Enterococcus faecalis, E. faecium, Listeria monocytogenes, and Streptococcus pneumoniae clinical isolates. A bacterial solution equivalent to 0.5 McFarland standard was prepared and diluted in cation-adjusted Mueller-Hinton broth (CAMHB) to achieve a bacterial concentration of about 5×10^5 CFU/mL and seeded in 96-well plates. Enterococcus faecium was diluted in brain heart infusion broth. Enterococcus faecalis, Streptococcus pneumonia and Listeria monocytogenes were diluted in tryptone soya broth (TSB). Compounds and control drugs were added in the first row of 96-well plates and serially diluted (to achieve a concentration gradient ranging from 128 to 1 μg/mL). Plates were then incubated aerobically at 37° C. for at least 18 hours. The minimum bactericidal concentration (MBC) of the active compounds was tested by plating 5 μL from wells with no growth onto Tryptic soy agar (TSA) plates.

[2] = tested on: human colorectal (Caco-2) cell; assay: In vitro cytotoxicity against Caco-2 cells (MTS); assay type: cell-based; settings: at 32 μg/mL
Experimental: Tested compounds were assayed (at concentrations of 16, 32, and 64 μg/mL) against a human colorectal (Caco-2) cell to determine the potential toxic effect to mammalian cells in vitro. Briefly, cells were cultured in Dulbecco's Modified Eagle Medium (DMEM) supplemented with 20% fetal bovine serum (FBS), non-essential amino acids (1×), and penicillin-streptomycin at 37° C. with CO2 (5%). Control cells received DMSO alone at a concentration equal to that in drug-treated cell samples. The cells were incubated with the compounds (in triplicate) in a 96-well plate at 37° C. with CO2 (5%) for two hours. The assay reagent MTS 3-(4,5-dimethylthiazol-2-yl)-5-(3-carboxymethoxyphenyl)-2-(4-sulfophenyl)-2H-tetrazolium) (Promega, Madison, Wis., USA) was subsequently added and the plate was incubated for four hours. Absorbance readings (at OD490) were taken using a kinetic microplate reader (Molecular Devices, Sunnyvale, Calif., USA). The quantity of viable cells after treatment with each compound was expressed as a percentage of the viability of DMSO-treated control cells (average of triplicate wells±standard deviation). The toxicity data was analyzed via a two-way ANOVA, with post hoc Sidak's multiple comparisons test (P<0.05), utilizing GraphPad Prism 6.0 (GraphPad Software, La Jolla, Calif.).

[3] = tested on: VRS12 (VRSA); assay: MIC/MBC S. aureus strains (Table 8); assay type: cell-based; settings: Staphylococcus aureus, Table 8, VRS12 (VRSA); for MBC: read-out: MBC
Experimental: as §1

[4] = tested on: VRS10 (VRSA); assay: MIC/MBC S. aureus strains (Table 8); assay type: cell-based; settings: Staphylococcus aureus, Table 8, VRS10 (VRSA); for MBC: read-out: MBC
Experimental: as §1

[5] = tested on: Listeria monocytogenes ATCC 19111; assay: MIC/MBC Gram-positive pathogens (Table 9); assay type: cell-based; settings: ATCC19111; Table 9; Listeria monocytogenes ATCC 19111
Experimental: (§2) A bacterial solution equivalent to 0.5 McFarland standard was prepared and diluted in cation-adjusted Mueller-Hinton broth (CAMHB) to achieve a bacterial concentration of about 5×10^5 CFU/mL and seeded in 96-well plates. Enterococcus faecium was diluted in brain heart infusion broth. Enterococcus faecalis, Streptococcus pneumonia and Listeria monocytogenes were diluted in tryptone soya broth (TSB).

[6] = tested on: Enterococcus faecalis ATCC 51299 (VRE); assay: MIC/MBC Gram-positive pathogens (Table 9); assay type: cell-based; settings: Table 9; Enterococcus faecalis ATCC 51299 (VRE)
Experimental: as §2

[7] = tested on: Methicillin-resistant Staphylococcus epidermidis NRS101; assay: MIC/MBC Gram-positive pathogens (Table 9); assay type: cell-based
Experimental: as §2

[8] = tested on: MRSA (USA300); assay: Time-kill assay; assay type: cell-based, Staphylococcus aureus; settings: 3.0×MIC
Experimental: Aliquots (100 μL) were taken from each sample after 2, 4, 6, 8, 10, 12, and 24 hours, serially diluted in phosphate-buffered saline, and transferred to Trypticase soy agar (TSA) (Becton, Dickinson and Company, Sparks, Md., USA) plates. Plates were incubated at 37° C. for at least 16 hours before counting viable CFU/mL to determine the time required to reduce the bacterial cell count by 3-log10.

[9] = tested on: S. aureus NRS107; assay: MIC/MBC S. aureus strains (Table 8); assay type: cell-based, Staphylococcus aureus; settings: Staphylococcus aureus; Table 8; S. aureus NRS107
Experimental: as §2

[10] = tested on: MRSA (2658 RCMB); assay: MIC against MRSA (2658 RCMB), broth dilution; assay type: cell-based, Staphylococcus aureus; settings: Staphylococcus aureus; Table 7; initial screening, MRSA (2658 RCMB); read-out: minimum inhibitory concentration (MIC)
Experimental: (§3) Bacteria were cultured in cation-adjusted Mueller Hinton broth in a 96-well plate. Compounds, using triplicate samples, were added to the plate and serially diluted. […] Plates were visually inspected and the MIC was categorized as the concentration at which no visible growth of bacteria was observed. The average of triplicate MIC determinations is reported.
as §2

[11] = tested on: MRSA NRS119; assay: MIC/MBC S. aureus strains (Table 8); assay type: cell-based; settings: Staphylococcus aureus
Experimental: as §2

[12] = tested on: S. aureus ATCC 6538; assay: MIC/MBC S. aureus strains (Table 8); assay type: cell-based; settings: Staphylococcus aureus, ATCC6538
Experimental: as §2

[13] = tested on: MRSA NRS123 (USA400); assay: MIC/MBC S. aureus strains (Table 8); assay type: cell-based; settings: Staphylococcus aureus
Experimental: as §2

[14] = tested on: MRSA NRS385; assay: MIC/MBC S. aureus strains (Table 8); assay type: cell-based; settings: Staphylococcus aureus
Experimental: as §2

[15] = tested on: MRSA NRS384 (USA300); assay: MIC/MBC S. aureus strains (Table 8); assay type: cell-based; settings: Staphylococcus aureus
Experimental: as §2

[16] = tested on: MRSA NRS386; assay: MIC/MBC S. aureus strains (Table 8); assay type: cell-based; settings: Staphylococcus aureus
Experimental: as §2

[17] = tested on: NRS384 (MRSA USA300); assay: MIC/MBC clinical isolate panel (Table 3); assay type: cell-based, S. aureus; settings: Staphylococcus aureus; Table 3; NRS384 (MRSA USA300)
Experimental: as §3, §2

[18] = tested on: NRS123 (MRSA USA400); assay: MIC/MBC clinical isolate panel (Table 3); assay type: cell-based, S. aureus; settings: Staphylococcus aureus; Table 3; NRS123 (MRSA USA400)
Experimental: as §3, §2

[19] = tested on: NRS383 (MRSA USA200); assay: MIC/MBC clinical isolate panel (Table 3); assay type: cell-based, S. aureus; settings: Staphylococcus aureus, Table 3, NRS383 (MRSA USA200)
Experimental: as §3, §2

[20] = tested on: NRS72 (MSSA); assay: MIC/MBC clinical isolate panel (Table 3); assay type: cell-based, S. aureus; settings: Staphylococcus aureus, Table 3, NRS72 (MSSA)
Experimental: as §3, §2

[21] = tested on: NRS382 (MRSA USA100); assay: MIC/MBC clinical isolate panel (Table 3); assay type: cell-based, S. aureus; settings: Staphylococcus aureus, Table 3, NRS382 (MRSA USA100)
Experimental: as §3, §2

[22] = tested on: VRSA10; assay: MIC/MBC clinical isolate panel (Table 3); assay type: cell-based, S. aureus; settings: Staphylococcus aureus, Table 3, VRSA10
Experimental: as §3, with “MRSA clinical isolates, and vancomycin-resistant Staphylococcus aureus (VRSA) strain were obtained through the Network of Antimicrobial Resistance in Staphylococcus aureus (NARSA) program. In addition, vancomycin-resistant Enterococcus faecium (VRE) strain was obtained from the ATCC. Bacteria” for “Bacteria”
as §1

[23] = tested on: VRE ATCC 700221; assay: MIC/MBC clinical isolate panel (Table 3); assay type: cell-based, Enterococcus faecium; settings: Enterococcus, Table 3, VRE ATCC 700221
Experimental: as §3, with “MRSA clinical isolates, and vancomycin-resistant Staphylococcus aureus (VRSA) strain were obtained through the Network of Antimicrobial Resistance in Staphylococcus aureus (NARSA) program. In addition, vancomycin-resistant Enterococcus faecium (VRE) strain was obtained from the ATCC. Bacteria” for “Bacteria”
as §1

Structure (SMILES): Cc1nc(-c2ccc(C(C)(C)C)cc2)sc1-c1ccnc(NC(=N)N(C)C)n1 [Compound 58, 3-(4-(2-(4-(tert-Butyl)phenyl)-4-methylthiazol-5-yl)pyrimidin-2-yl)-1,1-dimethylguanidine]
- MIC [1]: 8 µg/mL (≈ 20.3 µM)
- tolerability to human colorectal cells, in words [2]: intolerable
- MBC [3]: 8 µg/mL (≈ 20.3 µM)
- MIC ([3]; read-out: MIC): 8 µg/mL (≈ 20.3 µM)
- MBC [4]: 8 µg/mL (≈ 20.3 µM)
- MIC ([4]; read-out: MIC): 8 µg/mL (≈ 20.3 µM)
- MBC [5]: 8 µg/mL (≈ 20.3 µM)
- MIC [5]: 8 µg/mL (≈ 20.3 µM)
- MIC [6]: 8 µg/mL (≈ 20.3 µM)
- MBC [7]: 8 µg/mL (≈ 20.3 µM)
- MIC [7]: 8 µg/mL (≈ 20.3 µM)
- bactericidal / bacteriostatic behaviour in time-kill assay, in words ([8]; MRSA): rapid bactericidal activity
- time to completely eradicate the MRSA inoculum ([8]; t-butyl series): within two to four hours
- MBC [9]: 8 µg/mL (≈ 20.3 µM)
- MIC [9]: 8 µg/mL (≈ 20.3 µM)
- MIC [10]: 1.17 µg/mL (≈ 2.97 µM)
- MBC [11]: 8 µg/mL (≈ 20.3 µM)
- MIC [11]: 8 µg/mL (≈ 20.3 µM)
- MBC [12]: 8 µg/mL (≈ 20.3 µM)
- MIC [12]: 8 µg/mL (≈ 20.3 µM)
- MBC [13]: 8 µg/mL (≈ 20.3 µM)
- MIC [13]: 8 µg/mL (≈ 20.3 µM)
- MBC [14]: 8 µg/mL (≈ 20.3 µM)
- MIC [14]: 8 µg/mL (≈ 20.3 µM)
- MBC [15]: 8 µg/mL (≈ 20.3 µM)
- MIC [15]: 8 µg/mL (≈ 20.3 µM)
- MBC [16]: 8 µg/mL (≈ 20.3 µM)
- MIC [16]: 8 µg/mL (≈ 20.3 µM)

Structure (SMILES): CC(=O)NC[C@H]1CN(c2ccc(N3CCOCC3)c(F)c2)C(=O)O1 [Linezolid, linezolid]
- MBC [3]: 64 µg/mL (≈ 190 µM)
- MBC [4]: 64 µg/mL (≈ 190 µM)
- MBC [17]: 4 µg/mL (≈ 11.9 µM)
- MBC [18]: 16 µg/mL (≈ 47.4 µM)
- MBC [19]: 32 µg/mL (≈ 94.9 µM)
- MIC ([19]; read-out: MIC): 1 µg/mL (≈ 2.96 µM)
- MBC [20]: 2 µg/mL (≈ 5.93 µM)
- MIC ([20]; read-out: MIC): 1 µg/mL (≈ 2.96 µM)
- MBC [21]: 8 µg/mL (≈ 23.7 µM)
- MIC ([21]; read-out: MIC): 1 µg/mL (≈ 2.96 µM)
- MBC ([22]; read-out: MBC): 2 µg/mL (≈ 5.93 µM)
- MIC ([22]; read-out: MIC): 1 µg/mL (≈ 2.96 µM)
- MBC ([23]; read-out: MBC): 32 µg/mL (≈ 94.9 µM)
- MIC ([23]; read-out: MIC): 1 µg/mL (≈ 2.96 µM)
- MBC [11]: > 64 µg/mL
- MIC [11]: 32 µg/mL (≈ 94.9 µM)
- MIC [13]: 1 µg/mL (≈ 2.96 µM)
- MIC [15]: 1 µg/mL (≈ 2.96 µM)
- MBC [16]: 64 µg/mL (≈ 190 µM)
